Source: patent US11464782B2, “Method of treating pain or interstitial cystitis using indole compound” (Japan Tobacco Inc., priority 2018, dated 2022)
Like-named read-outs stand apart in the source and are kept apart here.

Columns and labels:
Type in all cases: in vivo
[1] = Trough plasma concentrations of Compound A in the human clinical study; conditions: human, plasma, oral, human plasma
Description: (§1) Compound A was evaluated in a multicenter, randomized, double-blind, placebo-controlled, parallel-group study in subjects with active rheumatoid arthritis. Subjects were randomized to receive orally placebo or an amount of monohydrochloride Compound A sufficient to provide 50 mg, 100 mg, 150 mg, or 200 mg of free form, once daily for 12 weeks.
In the human clinical study described in Example 3, blood samples were collected from subjects prior to dosing at weeks 2, 4, 8, and 12 for the quantification of plasma Compound A levels.

[2] = system: subjects with active rheumatoid arthritis; assay: Adverse events in rheumatoid arthritis human clinical trial
Description: as §1
The incidence of serious adverse events (SAEs) and severe treatment-emergent adverse events (TEAEs) in the clinical study was low (3.4% and 2.9%, respectively) in subjects who received treatment with one of the doses of Compound A in the clinical study.

[3] = system: rats with CYP-induced cystitis; assay: Rat CYP-induced cystitis model, frequent urination by cystometry; conditions: 2 or 6 mg/mL solutions at 5 mL/kg oral twice a day Day 1-2, cystometry Day 3
Description: The effect of Compound A on frequent urination, calculated by single voided volume and intermicturition interval, was evaluated using a rat CYP-induced cystitis model. The evaluation was performed according to G M. Herrera et al., PLoS ONE 5 (8): e12298. Female CD (SD) rats (Charles River Laboratories Japan, Inc.) were used as the experimental animals. A monohydrochloride of Compound A was dissolved in 0.5% MC to prepare 2 mg/mL and 6 mg/mL solutions of Compound A.
30 mg/mL of CYP (Sigma) dissolved in saline was intraperitoneally administered in the vehicle group and Compound A group and saline was intraperitoneally administered in the sham group at 5 mL/kg (Day 1).
0.5% (w/v) MC was orally administered once a day for 2 days (Day 1-2) in the sham group and vehicle group at 5 mL/kg, and 2 mg/mL or 6 mg/mL solutions of Compound A was orally administered twice a day (Day 1-2) in the Compound A administration group at 5 mL/kg.
Intravesical pressure and voided volume were measured by cystometry on Day 3, and single voided volumes and intermicturition intervals were calculated. Mean values were calculated for each group from individual single voided volumes and intermicturition intervals, and the results are shown in FIG. 12A and FIG. 12B, respectively.

[4] = 100 mg, 100 mg QD, read-out: Trough Plasma Concentrations, Median
[5] = 100 mg, 100 mg QD, BLQ (<2.00 ng/mL) set to 0, read-out: Trough Plasma Concentrations, Min-Max
[6] = 100 mg, 100 mg QD, read-out: Trough Plasma Concentrations, Mean (SD)
[7] = 150 mg, 150 mg QD, BLQ (<2.00 ng/mL) set to 0, read-out: Trough Plasma Concentrations, Min-Max
[8] = 150 mg, 150 mg QD, read-out: Trough Plasma Concentrations, Mean (SD)
[9] = 150 mg, 150 mg QD, read-out: Trough Plasma Concentrations, Median
[10] = 200 mg, 200 mg QD, BLQ (<2.00 ng/mL) set to 0, read-out: Trough Plasma Concentrations, Min-Max
[11] = 200 mg, 200 mg QD, read-out: Trough Plasma Concentrations, Mean (SD)
[12] = 200 mg, 200 mg QD, read-out: Trough Plasma Concentrations, Median
[13] = subjects who received one of the doses (50-200 mg once daily, 12 weeks)

concentration at 4 week [1, 4]: 215 ng/mL | concentration at 8 week [1, 5]: 0 to 785 ng/mL | concentration at 8 week [1, 6]: 228 ng/mL | concentration at 8 week [1, 4]: 194 ng/mL | concentration at 12 week [1, 5]: 0 to 728 ng/mL | concentration at 12 week [1, 6]: 178 ng/mL | concentration at 12 week [1, 4]: 175 ng/mL | concentration at 2 week [1, 7]: 1.47 to 1110 ng/mL | concentration at 2 week [1, 8]: 335 ng/mL | concentration at 2 week [1, 9]: 300 ng/mL | concentration at 4 week [1, 7]: 0 to 748 ng/mL | concentration at 4 week [1, 8]: 309 ng/mL | concentration at 4 week [1, 9]: 277 ng/mL | concentration at 8 week [1, 7]: 0 to 743 ng/mL | concentration at 8 week [1, 8]: 272 ng/mL | concentration at 8 week [1, 9]: 277 ng/mL | concentration at 12 week [1, 7]: 0 to 992 ng/mL | concentration at 12 week [1, 8]: 312 ng/mL | concentration at 12 week [1, 9]: 246 ng/mL | concentration at 2 week [1, 10]: 5.01 to 2210 ng/mL | concentration at 2 week [1, 11]: 521 ng/mL | concentration at 2 week [1, 12]: 436 ng/mL | concentration at 4 week [1, 10]: 0 to 1570 ng/mL | concentration at 4 week [1, 11]: 450 ng/mL | concentration at 4 week [1, 12]: 402 ng/mL | concentration at 8 week [1, 10]: 0 to 1660 ng/mL | concentration at 8 week [1, 11]: 402 ng/mL | concentration at 8 week [1, 12]: 392 ng/mL | concentration at 12 week [1, 10]: 0 to 1170 ng/mL | concentration at 12 week [1, 11]: 354 ng/mL | concentration at 12 week [1, 12]: 323 ng/mL
Compound: C[C@@H](C(=O)N(C)c1ccc2cc(-c3n[nH]c4c3CCC(C)(C)C4)[nH]c2c1)N1CCOCC1 [Compound A, N-[2-(6,6-dimethyl-4,5,6,7-tetrahydro-1H-indazol-3-yl)-1H-indol-6-yl]-N-methyl-(2S)-2-(morpholin-4-yl)propanamide]
safety and tolerability ([2]; doses up to 200 mg over 12 weeks of treatment): safe and tolerated | incidence of serious adverse events (SAEs) [2, 13]: 3.4% | incidence of severe treatment-emergent adverse events (TEAEs) [2, 13]: 2.9% | frequent urination (single voided volume, intermicturition interval) [3]: suppressed frequent urination
